In PMC10945555, “Improving Activity of New Arylurea Agents against Multidrug-Resistant and Biofilm-Producing Staphylococcus epidermidis” (ACS Medicinal Chemistry Letters, 2024):

Tests used:
[1] = Microsomal stability assay; settings: RLM, 60 min of incubation
Protocol: were treated with 100 μL of tested compound at the final concentration of 200 μM, and incubated at 37 °C for 1 h. Triton X-100 (2%) and PBS were used as positive and negative controls, respectively. After centrifugation at 3000 rpm for 3 min, 100 μL of the supernatants were transferred to a 96 well microtiter plate and the hemoglobin release was determined in a SpectraMax iD3 reader (Molecular Devices) by absorption at 540 nm.
2.3.4 Microsomal stability assay […]
following previously reported procedures.7 Tested compound was preincubated at 37 °C in a phosphate buffer (pH 7.4), containing rat liver microsomes (Sigma-Aldrich, Germany), at the concentration of 0.4 mg/mL. After 10 min, NADPH-regenerating system was added to initiate the reaction. At appropriate time points (0, 30 and 60 min), reaction was quenched with ice-cold methanol, containing the internal standard pentoxiphylline. Next samples were centrifuged and the supernatant was subjected to UPLC-MS analysis. From slope of the line on plot Ln (%remaining of parent compounds) vs time, t1/2 was determined. Clint was calculated from […]
experiment was run in duplicate. The metabolized drug verapamil was used as positive control […]
provided by Molecular Discovery Ltd. (Hertfordshire, UK). A highest probability of metabolic sites and metabolite structures were analysed by liver computational model. 8 […]

[2] = test system: Staphylococcus epidermidis clinical strain no. 23; assay: Cell membrane potential, DiOC2 flow cytometry; assay type: cell-based; settings: 4 × MIC, within 15 min; MSSE, S. epidermidis clinical strain no. 23, S. aureus Newman
From the text: 23, and S. aureus Newman (reference strain without known antibiotic resistance determinants). Bacterial strains were stained with 3,3′-diethyloxacarbocyanine iodide (DiOC2) and then treated with the tested compound 25, with carbonyl cyanide 3-chlorophenylhydrazone (CCCP) used as a positive control. Daptomycin was used as a reference compound that causes depolarization of bacterial cell membranes.[22]
(reduction of navy blue resazurin to pink resorufin in the presence of metabolically active cells) compared to the negative (sterile medium without bacteria and compounds) and positive control (medium with bacteria).9 The minimal biofilm eradication concentration value was analyzed using a high throughput screening the MBEC Assay® Kit (Innovotech, Canada), formerly the Calgary Biofilm Device, according to the manufacturer's insert.10 […]
determining MBC (Minimal Bactericidal Concentration) values. […] Then, the value of the MBC/MIC ratio was calculated to assess its bactericidal or bacteriostatic activity. […]
using the BacLight™ Bacterial Membrane Potential Kit (Molecular Probes, Invitrogen, Carlsbad, CA, USA).15 Analysis of the cells was tested in an LSR II flow cytometer (BD Biosciences Immunocytometry Systems, San Jose, CA, USA) equipped with blue, red and violet lasers, using 488 nm excitation for green (530/30 BP filter, 505 LP) and red (610/20 BP, 600 LP) fluorescence. […]

Question: Which results are given for O=C(Nc1cccc(Cl)c1)NC1CCN(CCC(Oc2ccc(C(F)(F)F)cc2)c2cccs2)CC1 (centres unmarked) [Compound 25]?
Answer: Clin [1]: 26.7; membrane depolarization [2]: depolarization in nearly all bacterial cells
